From patent publication US20060074061A1, “Formulations of glucocorticoids to treat pathologic ocular angiogenesis” (priority 2003, published 2006)

Test: Topical anecortave acetate in patients with glucocorticoid induced ocular hypertension (IOP)
Format: in vivo, human
Settings: patients (n=15) with glucocorticoid induced ocular hypertension; 1% eye drops topically three times per day for up to 12 weeks; glucocorticoid medication continued; IOP before treatment 29 mm Hg; significantly reduced
Protocol: Patients (η=15) with documented glucocorticoid induced ocular hypertension were treated topically with 1% anecortave acetate eye drops three times per day for up to 12 weeks. The patients continued to receive their glucocorticoid medication.

CC(=O)OCC(=O)[C@@]1(O)CC[C@H]2[C@@H]3CCC4=CC(=O)CC[C@]4(C)C3=CC[C@@]21C [anecortave acetate, 4,9(11)-pregnadien-17α,21-diol-3,20dione-21-acetate]
IOP after anecortave acetate treatment: 19-22 mm Hg
